Among the data in patent US8779156B2, “Analogues for the treatment or prevention of flavivirus infections” (Vertex Pharmaceuticals Incorporated, priority 2010, dated 2014) are EC50 values, retold here.

Molecules are shown by their SMILES.

This assay relates to HCV (1b) replicon, Huh-ET cells. Kind of assay: Cell-based luciferase reporter HCV (1b) RNA replication assay. The following applies: Hepatitis C virus, 96 h; HCV 1b replicon, luciferase, 4 days incubation; read-out: EC50_1b. The source says: Cell-Based Luciferase Reporter HCV (Ib) RNA Replication Assay Cell Culture
Replicon cell lines Huh-5.2 are derived from the Huh-7 hepatocarcinoma cell line are maintained in culture as generally described in Krieger, N; Lohmann, V; Bartenschlager, R. Enhancement of hepatitis C virus RNA replication by cell culture-adaptive mutations. J. Virol. 2001, 75, 4614-4624. The Huh-5.2 cells contain the highly cell culture-adapted replicon I389luc-ubi-neo/NS3-375.1 construct that carries, in addition to the neomycin gene, an integrated copy to the firefly luciferase gene (Krieger, N; Lohmann, V; Bartenschlager, R. Enhancement of hepatitis C virus RNA replication by cell culture-adaptive mutations. J. Virol. 2001, 75, 4614-4624). This cell line allows measurement of HCV RNA replication and translation by measuring luciferase activity. It has been previously shown that the luciferase activity tightly follows the replicon RNA level in these cells (Krieger, N; Lohmann, V; Bartenschlager, R. Enhancement of hepatitis C virus RNA replication by cell culture-adaptive mutations. J. Virol. 2001, 75, 4614-4624). The Huh-ET cell line has the same features as those mentioned for Huh-5.2 cell line, except that ET cells are more robust and contain an adaptative mutation in the HCV NS4B gene instead of NS5A. Both cell lines are maintained in cultures at a sub-confluent level (<85%) as the level of replicon RNA is highest in actively proliferating cells. The culture media used for cell passaging consist of DMEM (Gibco BRL Laboratories, Mississauga, ON, Canada) supplemented with 10% foetal bovine serum with 1% penicilin/streptomycin, 1% glutamine, 1% sodium pyruvate, 1% non-essential amino acids, and 180 μg/ml of G418 final concentration. Cells are incubated at 37° C., in an atmosphere of 5% CO2 and passaged twice a week to maintain sub-confluence.
Approximately 3000 viable Huh-ET cells (100 μl) are plated per well in a white opaque 96-well microtiter plate. The cell culture media used for the assay is the same as described above except that it contains no G418 and no phenol red. After an incubation period of 3-4 hours at 37° C. in a 5% CO2 incubator, compounds (100 μl) are added at various concentrations. Cells are then further incubated for 4 days at 37° C. in a 5% CO2 incubator. Thereafter, the culture media is removed and cells are lysed by the addition of 95 μL of the luciferase buffer (luciferin substrate in buffered detergent). Cell lysates are incubated at room temperature and protected from direct light for at least 10 minutes. Plates are read for luciferase counts using a luminometer (Wallac MicroBeta Trilux, Perkin Elmer™, MA, USA).
Curves are fitted to data points using nonlinear regression analysis, and IC50s are interpolated from the resulting curve using GraphPad Prism software, version 2.0 (GraphPad Software Inc., San Diego, Calif., USA).
In general terms: Reporter assays use an easily measured gene product as a stand-in for the process of interest.
For `COC(=O)N[C@H](C(=O)N1CC(C)(C)C[C@H]1c1nc(-c2ccc(-c3ccc(-c4ccc5[nH]c([C@@H]6CC(C)(C)CN6C(=O)[C@@H](NC(=O)OC)C(C)C)nc5c4)cc3)cc2)c[nH]1)C(C)C` [Compound 23], the EC50 was no more than 5 nM.

For `COC(=O)N[C@H](C(=O)N1C[C@@H](C)C[C@H]1c1nc(-c2cc3sc(-c4ccc5[nH]c([C@@H]6C[C@H](C)CN6C(=O)[C@H](C(C)C)N6CCOC6=O)nc5c4)cc3s2)c[nH]1)C(C)C` [Compound 40], the EC50 is no more than 5 nM. Regarding `COC(=O)N[C@H](C(=O)N1CCC[C@H]1c1nc(-c2ccc(-c3ccc4[nH]c([C@@H]5CCCN5C(=O)[C@@H](NC(=O)OC)C(C)C)nc4c3)cc2)c[nH]1)C(C)C` [Compound 3, Methyl N-[(1S)-1-[(2S)-2-[4-[4-[2-[(2S)-1-[(2S)-2-(methoxycarbonylamino)-3-methyl-butanoyl]pyrrolidin-2-yl]-1H-benzimidazol-5-yl]phenyl]-1H-imidazol-2-yl]pyrrolidine-1-carbonyl]-2-methyl-propyl]carbamate], the EC50 was no more than 5 nM.

Regarding `COC(=O)N[C@H](C(=O)N1C[C@H](C)C[C@H]1c1nc(-c2ccc(-c3ccc(-c4ccc5[nH]c([C@@H]6C[C@H](C)CN6C(=O)[C@@H](NC(=O)OC)C(C)C)nc5c4)cc3)cc2)c[nH]1)C(C)C` [Compound 47], the EC50 is no more than 5 nM. Regarding `COC(=O)N[C@H](C(=O)N1C[C@@H](C)C[C@H]1c1nc(-c2ccc(C#Cc3ccc4[nH]c([C@@H]5C[C@H](C)CN5C(=O)[C@@H](NC(=O)OC)C(C)C)nc4c3)cc2)c[nH]1)C(C)C` [Compound 9, Methyl N-[(1S)-1-[(2S,4S)-2-[4-[4-[2-[2-[(2S,4S)-1-[(2S)-2-(methoxycarbonylamino)-3-methyl-butanoyl]-4-methyl-pyrrolidin-2-yl]-1H-benzimidazol-5-yl]ethynyl]phenyl]-1H-imidazol-2-yl]-4-methyl-pyrrolidine-1-carbonyl]-2-methyl-propyl]carbamate], the EC50 was no more than 5 nM. With `COC(=O)N[C@H](C(=O)N1C[C@@H](C)C[C@H]1c1nc(-c2ccc(-c3ccc(-c4cc(F)c5[nH]c([C@@H]6C[C@H](C)CN6C(=O)[C@@H](NC(=O)OC)C(C)C)nc5c4)cc3)cc2)c[nH]1)C(C)C` [Compound 32], the EC50 was no more than 5 nM. Take `COC(=O)N[C@H](C(=O)N1C[C@@H](C)C[C@H]1c1nc(-c2cc3sc(-c4ccc5[nH]c([C@@H]6C[C@H](C)CN6C(=O)[C@@H](NC(=O)OC)C(C)C)nc5c4)cc3s2)c[nH]1)C(C)C` [Compound 16, Methyl N-[(1S)-1-[(2S,4S)-2-[4-[5-[2-[(2S,4S)-1-[(2S)-2-(methoxycarbonylamino)-3-methyl-butanoyl]-4-methyl-pyrrolidin-2-yl]-1H-benzimidazol-5-yl]thieno[3,2-b]thiophen-2-yl]-1H-imidazol-2-yl]-4-methyl-pyrrolidine-1-carbonyl]-2-methyl-propyl]carbamate]: the EC50 is no more than 5 nM. The same measure for `COC(=O)N[C@H](C(=O)N1C[C@@H](C)C[C@H]1c1nc(-c2ccc(-c3ccc(-c4ccc5[nH]c([C@@H]6C[C@H](C)CN6C(=O)[C@@H](NC(=O)OC)C(C)C)nc5c4)cc3F)cc2)c[nH]1)C(C)C` [Compound 39]: no more than 5 nM; for `COC(=O)N[C@H](C(=O)N1C[C@@H](C)C[C@H]1c1nc(-c2ccc3nc(-c4ccc5[nH]c([C@@H]6C[C@H](C)CN6C(=O)[C@@H](NC(=O)OC)C(C)C)nc5c4)ccc3c2)c[nH]1)C(C)C` [Compound 34]: no more than 5 nM. For `COC(=O)N[C@H](C(=O)N1C[C@@H](C)C[C@H]1c1nc(C)c(-c2ccc(-c3ccc(-c4ccc5[nH]c([C@@H]6C[C@H](C)CN6C(=O)[C@@H](NC(=O)OC)C(C)C)nc5c4)cc3)cc2)[nH]1)C(C)C` [Compound 15, Methyl N-[(1S)-1-[(2S,4S)-2-[5-[4-[4-[2-[(2S,4S)-1-[(2S)-2-(methoxycarbonylamino)-3-methyl-butanoyl]-4-methyl-pyrrolidin-2-yl]-1H-benzimidazol-5-yl]phenyl]phenyl]-4-methyl-1H-imidazol-2-yl]-4-methyl-pyrrolidine-1-carbonyl]-2-methyl-propyl]carbamate], the EC50 was no more than 5 nM. For the molecule `COC(=O)N(C)C(C(=O)N1C[C@@H](C)C[C@H]1c1nc(-c2ccc(C#Cc3ccc4[nH]c([C@@H]5C[C@H](C)CN5C(=O)C(C(C)C)N(C)C(=O)OC)nc4c3)cc2)c[nH]1)C(C)C` (stereo in doubt) [Compound 10, Methyl N-[(1S)-1-[(2S,4S)-2-[4-[4-[2-[2-[(2S,4S)-1-[(2S)-2-[methoxycarbonyl-(methyl)amino]-3-methyl-butanoyl]-4-methyl-pyrrolidin-2-yl]-1H-benzimidazol-5-yl]ethynyl]phenyl]-1H-imidazol-2-yl]-4-methyl-pyrrolidine-1-carbonyl]-2-methyl-propyl]-N-methyl-carbamate], the EC50 was no more than 5 nM. Consider `COC(=O)N[C@H](C(=O)N1C[C@@H](C)C[C@H]1c1nc(C#Cc2ccc(-c3ccc4[nH]c([C@@H]5C[C@H](C)CN5C(=O)[C@@H](NC(=O)OC)C(C)C)nc4c3)cc2)c[nH]1)C(C)C` [Compound 12, Methyl N-[(1S)-1-[(2S,4S)-2-[4-[2-[4-[2-[(2S,4S)-1-[(2S)-2-(methoxycarbonylamino)-3-methyl-butanoyl]-4-methyl-pyrrolidin-2-yl]-1H-benzimidazol-5-yl]phenyl]ethynyl]-1H-imidazol-2-yl]-4-methyl-pyrrolidine-1-carbonyl]-2-methyl-propyl]carbamate], for which the EC50 is no more than 5 nM.
